Values of other authors, collected in patent publication US20250268820A1 (Zambon S.p.A., priority 2020, published 2025).

Assays:
[1] = in vivo

CCC(C)n1ncn(-c2ccc(N3CCN(c4ccc(OCC5COC(Cn6cncn6)(c6ccc(Cl)cc6Cl)O5)cc4)CC3)cc2)c1=O (stereo not drawn) [itraconazole]
ELF exposure as fraction of the plasma concentration (healthy volunteers): approximately ⅓ | concentration in the alveolar cells with respect to the plasma concentration (healthy volunteers): more than double | concentrations in bronchoalveolar lavage fluid and lung tissue in the airways versus plasma (other cases): 10 times lower

C[C@@H](c1ncncc1F)[C@](O)(Cn1cncn1)c1ccc(F)cc1F [voriconazole]
concentration in homogenates of lung tissue versus plasma (post-mortem studies, treated patients): comparable to those measured in the plasma | pharmacokinetic profile (Cmax and AUC versus dose) [1]: non-linear

OC(Cn1cncn1)(Cn1cncn1)c1ccc(F)cc1F [Fluconazole]
activity against invasive aspergillosis (invasive aspergillosis): not active
